Measured values: patent publication US5756511A, “Method for treating symptoms of a neurodegenerative condition” (Cell Therapeutics, Inc., priority 1995, dated 1998)

How the values were obtained:
[1] = system: human amyloid precursor protein (APP) promoter; experiment: APP promoter-alkaline phosphatase (pHAPPro. 1) reporter assay in transfected SH-SY5Y cells stimulated with hTNFα; type: cell-based; details: SH-SY5Y transfected with pHAPPro. 1; 1 nM hTNFα; increasing concentrations of agent
Protocol: This example is an in vitro assay confirming activity of an ability of representative agents to inhibit APP synthesis by effecting the level of alkaline phosphatase in the culture medium of human neuroblastoma cells, SH-SY5Y (Beidler et al., 1978), expression of which is controlled by a human amyloid precursor protein (APP) promoter.
The SH-SY5Y were transfected with the promoter-alkaline phosphatase reporter gene construct pHAPPro. The transfected cells were prepared as follows:
A DNA fragment comprising nucleotide pairs -660 to +20 of the human APP promoter (Salbaum et al. 1988) was isolate by polymerase chain reaction using human placental DNA as a template. Xba I and ASP718 restriction endonuclease recognition sites were incorporated during amplification to facilitate subcloning upstream of an alkaline phosphatase reporter gene, forming the plasmid pHAPPro. 1, represented in FIG. 1. SH-SY5Y were subsequently transfected with pHAPPro. 1.
Comparing results obtained in this assay to a standard based on alkaline phosphatase expression controlled by a human phosphoglycerol kinase (PGK) promoter, relative to any cytotoxic effects an agent confirms therapeutic efficacy in the inventive method.
In all assays, controls were done in triplicate. Control assays specifically included assays using: 1) unstimulated cells; 2) cells stimulated with 1 nM hTNFαalone; 3) cells stimulated with 1 nM hTNFα and increasing concentrations of agent, as tested for all representative agents; 4) cells stimulated with 1 nM hTNFα and increasing concentrations of vehicle (100% ethanol), corresponding to vehicle concentrations in test agent preparations.
Subsequent validation of all results included repeating tests with an expanded dose range. Results obtained were compared to an agent's inhibition of constituitive promoter for the phosphoglycerol kinase gene and endogenous amyloid precursor protein expression in neuroblastoma cells
SH-SY5Y cells, prepared above, were plated into wells of a 96-well dish at a density of 20,000 cells per well in […] AIM V medium (Gibco/BRL, Gaithersburg, Md.: CAT# 21021-019). Dishes were incubated at 5% CO2 and 37° C. for 12 to 24 hours. […]
Culture medium […] from each well was transferred to a corresponding well of a 96-well ELISA dish and […] 1× SEAP (0.5M diethanolamine (pH 9.8); 0.25 mM MgCl2; 0.01 mM ZnSO4; 10 mM L-homoarginine; 1 mM para-nitrophenyphosphate, Berger et al., 1988.), prepared above, was added to each well. The plates were incubated 10 minutes in 5% CO2 and 37° C., after which the kinetic change in absorbance at 405 nm was measured on a BIOTEK plate reader.
All data were imported into plotting software for analysis. Triplicate data points were averaged and standard error (from mean) was calculated using accepted standards. […]

endogenous APP = experiment: Western Blot of endogenous APP in culture supernatants of SH-SY5Y cells; type: cell-based; details: SH-SY5Y incubated 18 hours with 5 nM human TNFA and increasing concentrations of compound
Protocol: This Example illustrates the effect of representative compounds nos. 2576, 2583, 3501, 3577, 4522, 4533, 4535 and 4537 used in the inventive method on endogenous APP expression.
Cell cultures were prepared as in Example 1 using SH-SY5Y human neuroblastoma cells. Culture supernatants from SH-SY5Y cells incubated for 18 hours with 5 nM human TNFA and increasing concentrations of representative compounds identified above were separated on a 4-20% SDS-polyacrylamide gel and transferred to nitrocellulose. The nitrocellulose filter was probed with anti-APP antibody (Boehringer Mannheim, Indpls, Ind.), and the results visualized by Enhanced Chemiluminecence (Amersham Life Sciences, Arlington Heights, Ill.).

SMILES | inhibition of APP expression (FIG. 2) [1] | inhibition of expression of endogenous APP (FIG. 3) (endogenous APP)
CCCCCCCCN(CC(CCCCCCCCCn1c(=O)c2c(ncn2C)n(C)c1=O)OC(C)=O)C(C)=O (stereo not drawn) [Compound 4537] | inhibit APP expression in a dose-dependent fashion | inhibition of APP expression, in a dose-dependent manner
COc1cc(CNC(CO)CCCCCCCCCn2c(=O)c3c(ncn3C)n(C)c2=O)cc(OC)c1OC (stereo not drawn) [Compound 4522] | inhibit APP expression in a dose-dependent fashion | inhibition of APP expression, in a dose-dependent manner
COc1cc(CNC(=O)CCCCCCCCCCn2c(=O)c3c(ncn3C)n(C)c2=O)cc(OC)c1OC [Compound 3577] | inhibit APP expression in a dose-dependent fashion | inhibition of APP expression, in a dose-dependent manner
COc1cc(CNCC(O)CCCCCCCCCn2c(=O)c3c(ncn3C)n(C)c2=O)cc(OC)c1OC (stereo not drawn) [Compound 3501] | inhibit APP expression in a dose-dependent fashion | inhibition of APP expression, in a dose-dependent manner
COc1cc(NC(=O)CCCCCCCCCCn2c(=O)c3c(ncn3C)n(C)c2=O)cc(OC)c1OC [Compound 4535] | – | inhibition of APP expression, in a dose-dependent manner
CCCCCCCCNCC(O)CCCCCCCCCn1c(=O)c2c(ncn2C)n(C)c1=O (stereo not drawn) [Compound 2576] | – | inhibition of APP expression, in a dose-dependent manner
CCCCCCCCCCNCC(O)CCCCCCCCCn1c(=O)c2c(ncn2C)n(C)c1=O (stereo not drawn) [Compound 2583] | – | inhibition of APP expression, in a dose-dependent manner
Cn1cnc2c1c(=O)n(CCCCCCCCCCC(=O)NCc1ccc3c(c1)OCO3)c(=O)n2C [Compound 4533] | – | inhibition of APP expression, in a dose-dependent manner
